Results: patent US10538497B2, “Compounds as indoleamine 2,3-dioxygenase inhibitors” (Merck Sharp & Dohme Corp., priority 2015, dated 2020)
pIC50: −log10 of the molar value.

What was measured:
[1] = target: T1, IDO1 (Homo sapiens (Human), UniProt P14902); experiment: IDO1 Cellular Assay in Frozen HEK293 Cells Transiently Transfected with Human IDO1; type: cell-based; conditions: read-out: IDO1 HEK293 Cell Assay, IC50
[2] = target: T1, IDO1; experiment: IDO1 Cellular Assay in Hela Cells Stimulated with IFNγ; type: cell-based; conditions: Hela cells stimulated with IFNγ 100 ng/mL; read-out: IDO1 HELA Cell Assay, IC50
[3] = target: T1, IDO1; experiment: IDO1 Enzyme Assay; conditions: HIS-tagged recombinant IDO1, 40 nM; for pIC50: read-out: IDO1 Enzyme Assay, IC50; for IC50: IDO1 Enzyme Assay, IC50, nM
[4] = HEK293 cells transiently transfected with human IDO1

T1 sequence (P14902 whole entry): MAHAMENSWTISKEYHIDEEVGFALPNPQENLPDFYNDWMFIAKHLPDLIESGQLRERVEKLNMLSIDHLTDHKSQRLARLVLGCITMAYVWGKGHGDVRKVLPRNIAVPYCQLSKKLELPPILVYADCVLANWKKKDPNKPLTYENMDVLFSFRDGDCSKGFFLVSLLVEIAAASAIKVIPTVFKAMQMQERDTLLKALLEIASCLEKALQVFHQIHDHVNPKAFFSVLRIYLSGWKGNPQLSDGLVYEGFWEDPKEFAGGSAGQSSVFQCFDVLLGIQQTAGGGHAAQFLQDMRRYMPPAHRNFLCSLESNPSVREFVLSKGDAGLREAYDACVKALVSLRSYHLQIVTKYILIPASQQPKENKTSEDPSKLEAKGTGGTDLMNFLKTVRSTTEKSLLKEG

Compound | pIC50 [1, 4] | pIC50 [2] | pIC50 [3] | IC50 [3] | pIC50 [1]
CN1CCOC(CSc2nonc2/C(=N/O)Nc2ccc(F)c(Br)c2)C1 (stereo not drawn) [Example 78, N-(3-bromo-4-fluorophenyl)-N′-hydroxy-4-{[(4-methylmorpholin-2-yl)methyl]sulfanyl}-1,2,5-oxadiazole-3-carboximidamide] | 7.00 | 7.24 | 7.04 | – | –
CC(=O)N1CCC(Sc2nonc2/C(=N/O)Nc2ccc(F)c(Br)c2)CC1 [Example 87, 4-[(1-acetylpiperidin-4-yl)sulfanyl]-N-(3-bromo-4-fluorophenyl)-N′-hydroxy-1,2,5-oxadiazole-3-carboximidamide] | 6.88 | 7.15 | 7.00 | – | –
O=c1c(NCCSc2nonc2/C(=N/O)Nc2ccc(F)c(Br)c2)c(N2CCOCC2)c1=O [Example 91, N-(3-bromo-4-fluorophenyl)-N′-hydroxy-4-({2-[(2-morpholin-4-yl-3,4-dioxocyclobut-1-en-1-yl)amino]ethyl}sulfanyl)-1,2,5-oxadiazole-3-carboximidamide] | 6.44 | 6.45 | 7.24 | – | –
O=c1[nH]nc(CSc2nonc2/C(=N/O)Nc2ccc(F)c(Br)c2)cc1C(F)(F)F [Example 92, N-(3-bromo-4-fluorophenyl)-N′-hydroxy-4-({[6-oxo-5-(trifluoromethyl)-1,6-dihydropyridazin-3-yl]methyl}sulfanyl)-1,2,5-oxadiazole-3-carboximidamide] | 6.44 | 6.84 | 7.00 | – | –
O=c1c(NCCSc2nonc2/C(=N/O)Nc2ccc(F)c(Br)c2)c(N2CCCCC2)c1=O [Example 93, N-(3-bromo-4-fluorophenyl)-4-({2-[(3,4-dioxo-2-piperidin-1-ylcyclobut-1-en-1-yl)amino]ethyl}sulfanyl)-N′-hydroxy-1,2,5-oxadiazole-3-carboximidamide] | 6.39 | 6.60 | 7.41 | – | –
CC(C)Nc1c(NCCSc2nonc2/C(=N/O)Nc2ccc(F)c(Br)c2)c(=O)c1=O [Example 94, N-(3-bromo-4-fluorophenyl)-N′-hydroxy-4-{[2-({2-[(1-methylethyl)amino]-3,4-dioxocyclobut-1-en-1-yl}amino)ethyl]sulfanyl}-1,2,5-oxadiazole-3-carboximidamide] | 6.71 | 7.14 | 7.57 | – | –
CC(C)OC(=O)[C@H](C)NP(=O)(CCSc1nonc1/C(=N/O)Nc1ccc(F)c(Br)c1)N[C@@H](C)C(=O)OC(C)C [Example 97, 1-methylethyl (2S,6S)-4-[2-({4-[N-(3-bromo-4-fluorophenyl)-N′-hydroxycarbamimidoyl]-1,2,5-oxadiazol-3-yl}sulfanyl)ethyl]-2,6,9-trimethyl-7-oxo-8-oxa-3,5-diaza-4-phosphadecan-1-oate 4-oxide] | 6.13 | 6.42 | 6.88 | – | –
N/C(=C\[N+](=O)[O-])NCCSc1nonc1C(=NO)Nc1ccc(F)c(Br)c1 [Example 99, 4-[(2-{[(E)-1-amino-2-nitroethenyl]amino}ethyl)sulfanyl]-N-(3-bromo-4-fluorophenyl)-N′-hydroxy-1,2,5-oxadiazole-3-carboximidamide] | 6.64 | 6.71 | 7.08 | – | –
COCCNP(=O)(CCSc1nonc1/C(=N/O)Nc1ccc(F)c(Br)c1)NCCOC [Example 100, 4-[(2-{bis[(2-methoxyethyl)amino]phosphoryl}ethyl)sulfanyl]-N-(3-bromo-4-fluorophenyl)-N′-hydroxy-1,2,5-oxadiaxole-3-carboximidamide] | 6.24 | 6.47 | 7.01 | – | –
CNP(=O)(CCSc1nonc1/C(=N/O)Nc1ccc(F)c(Br)c1)NC [Example 103, 4-({2-[bis(methylamino)phosphoryl]ethyl}sulfanyl)-N-(3-bromo-4-fluorophenyl)-N′-hydroxy-1,2,5-oxadiazole-3-carboximidamide] | – | 7.49 | 7.31 | – | 7.07
CNC(=O)N1CCC(Sc2nonc2/C(=N/O)Nc2ccc(F)c(Br)c2)CC1 [Example 104, 4-({4-[N-(3-bromo-4-fluorophenyl)-N′-hydroxycarbamimidoyl]-1,2,5-oxadiazol-3-yl}sulfanyl)-N-methylpiperidine-1-carboxamide] | 6.57 | 6.45 | 6.77 | – | –
COCCNC(=O)CCSc1nonc1/C(=N/O)Nc1ccc(F)c(Br)c1 [Example 106, 3-({4-[N-(3-bromo-4-fluorophenyl)-N′-hydroxycarbamimidoyl]-1,2,5-oxadiazol-3-yl}sulfanyl)-N-(2-methoxyethyl)propanamide] | 7.10 | 6.25 | 7.52 | – | –
CN(C)C(=O)CSc1nonc1C(=NO)Nc1ccc(F)c(Br)c1 [Example 111, 2-({4-[N-(3-bromo-4-fluorophenyl)-N′-hydroxycarbamimidoyl]-1,2,5-oxadiazol-3-yl}sulfanyl)-N,N-dimethylacetamide] | 6.35 | 6.16 | – | 59.6 nM | –
O=C(CSc1nonc1C(=NO)Nc1ccc(F)c(Br)c1)NC1CCC1 [Example 114, 2-({4-[N-(3-bromo-4-fluorophenyl)-N′-hydroxycarbamimidoyl]-1,2,5-oxadiazol-3-yl}sulfanyl)-N-cyclobutylacetamide] | 7.01 | 6.83 | – | 36.9 nM | –
CC(=O)CSc1nonc1/C(=N/O)Nc1ccc(F)c(Br)c1 [Example 115, N-(3-bromo-4-fluorophenyl)-N′-hydroxy-4-[(2-oxopropyl)sulfanyl]-1,2,5-oxadiazole-3-carboximidamide] | 6.98 | 6.77 | 7.29 | – | –

Further lines, with some results ahead:

pIC50 [1, 4] | pIC50 [2] | pIC50 [3] | IC50 [3] | Compound | pIC50 [1]
7.44 | 7.36 | 7.29 | – | NC(=O)CSc1nonc1/C(=N/O)Nc1ccc(F)c(Br)c1 [Example 77, 2-({4-[N-(3-bromo-4-fluorophenyl)-N′-hydroxycarbamimidoyl]-1,2,5-oxadiazol-3-yl}sulfanyl)acetamide] | –
7.56 | 7.62 | 7.21 | – | O=C(NCCSc1nonc1/C(=N/O)Nc1ccc(F)c(Br)c1)C(F)(F)F [Example 79, N-[2-({4-[N-(3-bromo-4-fluorophenyl)-N′-hydroxycarbamimidoyl]-1,2,5-oxadiazol-3-yl}sulfanyl)ethyl]-2,2,2-trifluoroacetamide] | –
7.11 | 7.42 | 6.90 | – | N#CC12CC(CSc3nonc3/C(=N/O)Nc3ccc(F)c(Br)c3)(C1)C2 [Example 80, N-(3-bromo-4-fluorophenyl)-4-{[(3-cyanobicyclo[1.1.1]pent-1-yl)methyl]sulfanyl}-N′-hydroxy-1,2,5-oxadiazole-3-carboximidamide] | –
7.43 | 7.37 | 7.38 | – | CNC(=O)N1CC(Sc2nonc2/C(=N/O)Nc2ccc(F)c(Br)c2)C1 [Example 81, 3-({4-[N-(3-bromo-4-fluorophenyl)-N′-hydroxycarbamimidoyl]-1,2,5-oxadiazol-3-yl}sulfanyl)-N-methylazetidine-1-carboxamide] | –
7.11 | 7.39 | 6.99 | – | O=S1(=O)CCC(Sc2nonc2/C(=N/O)Nc2ccc(F)c(Br)c2)CC1 [Example 82, N-(3-bromo-4-fluorophenyl)-4-[(1,1-dioxidotetrahydro-2H-thiopyran-4-yl)sulfanyl]-N′-hydroxy-1,2,5-oxadiazole-3-carboximidamide] | –
7.94 | 7.12 | 7.64 | – | O=C1CC[C@H](CSc2nonc2/C(=N/O)Nc2ccc(F)c(Br)c2)N1 [Example 83, N-(3-bromo-4-fluorophenyl)-N′-hydroxy-4-({[(2R)-5-oxopyrrolidin-2-yl]methyl}sulfanyl)-1,2,5-oxadiazole-3-carboximidamide] | –
7.45 | 7.77 | 7.41 | – | N#C/N=C(\N)NCCSc1nonc1/C(=N/O)Nc1ccc(F)c(Br)c1 [Example 85, N-(3-bromo-4-fluorophenyl)-4-{[2-(N″- cyanocarbamimidamido)ethyl]sulfanyl}-N′-hydroxy-1,2,5-oxadiazole-3-carboximidamide] | –
7.48 | 7.61 | 7.43 | – | NC(=O)CCSc1nonc1/C(=N/O)Nc1ccc(F)c(Br)c1 [Example 96, 3-({4-[N-(3-bromo-4-fluorophenyl)-N′-hydroxycarbamimidoyl]-1,2,5-oxadiazol-3-yl}sulfanyl)propanamide] | –
7.37 | 7.32 | 7.52 | – | O=C(CCSc1nonc1/C(=N/O)Nc1ccc(F)c(Br)c1)NCCO [Example 107, 3-({4-[N-(3-bromo-4-fluorophenyl)-N′-hydroxycarbamimidoyl]-1,2,5-oxadiazol-3-yl}sulfanyl)-N-(2-hydroxyethyl)propanamide] | –
7.59 | 7.27 | – | 48.5 nM | CCNC(=O)CSc1nonc1C(=NO)Nc1ccc(F)c(Br)c1 [Example 110, 2-({4-[N-(3-bromo-4-fluorophenyl)-N′-hydroxycarbamimidoyl]-1,2,5-oxadiazol-3-yl}sulfanyl)-N-ethylacetamide] | –
7.40 | 7.39 | – | 54.2 nM | O=C(CSc1nonc1C(=NO)Nc1ccc(F)c(Br)c1)NCCO [Example 112, 2-({4-[N-(3-bromo-4-fluorophenyl)-N′-hydroxycarbamimidoyl]-1,2,5-oxadiazol-3-yl}sulfanyl)-N-(2-hydroxyethyl)acetamide] | –
7.45 | 7.12 | – | 47.3 nM | O=C(CSc1nonc1/C(=N/O)Nc1ccc(F)c(Br)c1)NC1CC1 [Example 113, 2-({4-[N-(3-bromo-4-fluorophenyl)-N′-hydroxycarbamimidoyl]-1,2,5-oxadiazol-3-yl}sulfanyl)-N-cyclopropylacetamide] | –
